We go through 16 compounds from patent US8993718B2, “Methods and compositions for detecting and modulating O-glycosylation” (President and Fellows of Harvard College, priority 2007, dated 2015).

Non-standard residues stand in square brackets, D forms with d. Primed or numbered codes have the meaning given here. No end group written: not given here. *: point of attachment. FITC = O=C1OC2(c3ccc(O)cc3Oc3cc(O)ccc32)c2ccc(NC(=S)*)cc21; Aha′ = not defined here

One assay concerns the target T1, sOGT (Homo sapiens, UniProt O15294).
T1 sequence (O15294 1-665 isoform O15294-4): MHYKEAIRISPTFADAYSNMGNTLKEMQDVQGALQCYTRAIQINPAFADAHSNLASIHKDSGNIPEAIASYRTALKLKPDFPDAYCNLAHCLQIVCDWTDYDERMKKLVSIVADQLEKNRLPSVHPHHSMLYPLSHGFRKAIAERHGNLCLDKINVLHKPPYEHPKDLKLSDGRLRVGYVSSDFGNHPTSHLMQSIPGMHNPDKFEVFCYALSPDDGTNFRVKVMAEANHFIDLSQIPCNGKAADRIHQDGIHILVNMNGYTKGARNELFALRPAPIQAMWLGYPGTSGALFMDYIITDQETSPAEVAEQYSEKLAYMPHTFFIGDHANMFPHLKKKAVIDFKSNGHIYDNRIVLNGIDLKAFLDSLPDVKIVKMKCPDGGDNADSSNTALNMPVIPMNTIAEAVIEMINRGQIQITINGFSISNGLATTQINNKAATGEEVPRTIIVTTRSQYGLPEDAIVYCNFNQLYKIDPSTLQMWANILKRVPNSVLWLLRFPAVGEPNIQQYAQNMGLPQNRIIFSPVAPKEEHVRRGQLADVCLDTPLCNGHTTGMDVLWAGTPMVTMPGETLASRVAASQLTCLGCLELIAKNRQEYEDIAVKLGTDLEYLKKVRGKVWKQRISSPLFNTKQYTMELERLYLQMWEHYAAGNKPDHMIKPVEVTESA
The assay can be described thus: High-throughput kinetic protease-protection screen with polypeptide 4.10. It counts as biochemical. Particulars: 25 μg/mL (~70 μM); hit = <70% activity in one duplicate and <80% in the second. An excerpt: With the final assay conditions established, 124,226 compounds were screened in duplicate at the ICCB (Harvard University, Boston, Mass.) over two days; the highest throughput of any assay performed at the ICCB screening facility. Small molecule libraries from several commercial vendors were screened as well as known bioactive compounds, natural product extracts, and molecules made using diversity oriented synthetic approaches. Included in this set were 52,026 of the 64,416 compounds screened using a donor displacement method such as that described in PCT application PCT/US2007/008806, which was filed Apr. 11, 2007. The vast majority compounds screened were small molecules (average MW ˜350) that were optimized to have favorable physico-chemical properties such as solubility, decreased toxicity, and increased stability. All of the commercial compounds at the ICCB are plated at a stock concentration of 5 mg/mL, which, given a 20 μL reaction volume, corresponds to a 25 μg/mL inhibitor concentration in each well. The format of most compound plates at the ICCB has the last two columns of each 384-well plate empty. This allowed each assay plate to have column of negative controls (run without inhibitor) and column of positive controls (run without sOGT), which allowed a Z′ to be calculated for each plate. These values typically ranged from 0.7-0.8.
Data workup began by calculating the average positive and negative control values independently for both duplicates of each plate. Using the linear relationship between percent glycosylation and fluorescence shown above (FIG. 7), the percent glycosylation was calculated for each well, with 0% corresponding to the average value of the positive controls and 100% corresponding to the average value of the negative controls. In actuality the range is roughly […] glycosylated polypeptide since the reaction was not allowed to proceed to completion. However, this simplification was employed to facilitate the comparison of different sets of plates. There were remarkably few compounds that reproducibly appeared to inhibit OGT, which enabled hits to be selected using a very high cutoff. Compounds with <70% activity in one duplicate and <80% activity in the second duplicate were scored as hits. Even using this lax criterion, the total unfiltered hit set only numbered 84, corresponding to a hit rate of 0.065%.
384-well plates (Costar #3710) were filled using a liquid handling robot with 10 μL of a mixture of 8 μM polypeptide 4.10, 40 μM UDP-GlcNAc, and buffer (50 mM Tris, 20 mM CaCl2, 0.05% Tween-20, 0.05% NP-40, pH=7.8, 500 μM tris(hydroxypropyl)phosphine). Compound libraries were then transferred to the assay plates using a 100 nL pin array and 10 μL of 500 nM sOGT in buffer (50 mM Tris, 20 mM CaCl2, 0.05% Tween-20, 0.05% NP-40, pH=7.8, 500 μM tris(hydroxypropyl)phosphine) was added using a liquid handling robot. The compounds were assayed at a concentration of 25 μg/mL or ˜70 μM, assuming an average compound MW of 350. After 2-3 hours, 20 μL of a 20 ng/mL proteinase K solution in buffer (50 mM Tris, 20 mM CaCl2, 0.05% Tween-20, 0.05% NP-40, pH=7.8) was added and allowed to react for 30-90 minutes. The plates were read using a Perkin-Elmer Envision® microplate reader with a 480 nm excitation filter and 530 nm emission filter.

The target of assay [1] is T2, O-Linked N-acetylglucosaminyltransferase (OGT) (Homo sapiens, UniProt O15294).
T2 sequence (O15294 1-1046): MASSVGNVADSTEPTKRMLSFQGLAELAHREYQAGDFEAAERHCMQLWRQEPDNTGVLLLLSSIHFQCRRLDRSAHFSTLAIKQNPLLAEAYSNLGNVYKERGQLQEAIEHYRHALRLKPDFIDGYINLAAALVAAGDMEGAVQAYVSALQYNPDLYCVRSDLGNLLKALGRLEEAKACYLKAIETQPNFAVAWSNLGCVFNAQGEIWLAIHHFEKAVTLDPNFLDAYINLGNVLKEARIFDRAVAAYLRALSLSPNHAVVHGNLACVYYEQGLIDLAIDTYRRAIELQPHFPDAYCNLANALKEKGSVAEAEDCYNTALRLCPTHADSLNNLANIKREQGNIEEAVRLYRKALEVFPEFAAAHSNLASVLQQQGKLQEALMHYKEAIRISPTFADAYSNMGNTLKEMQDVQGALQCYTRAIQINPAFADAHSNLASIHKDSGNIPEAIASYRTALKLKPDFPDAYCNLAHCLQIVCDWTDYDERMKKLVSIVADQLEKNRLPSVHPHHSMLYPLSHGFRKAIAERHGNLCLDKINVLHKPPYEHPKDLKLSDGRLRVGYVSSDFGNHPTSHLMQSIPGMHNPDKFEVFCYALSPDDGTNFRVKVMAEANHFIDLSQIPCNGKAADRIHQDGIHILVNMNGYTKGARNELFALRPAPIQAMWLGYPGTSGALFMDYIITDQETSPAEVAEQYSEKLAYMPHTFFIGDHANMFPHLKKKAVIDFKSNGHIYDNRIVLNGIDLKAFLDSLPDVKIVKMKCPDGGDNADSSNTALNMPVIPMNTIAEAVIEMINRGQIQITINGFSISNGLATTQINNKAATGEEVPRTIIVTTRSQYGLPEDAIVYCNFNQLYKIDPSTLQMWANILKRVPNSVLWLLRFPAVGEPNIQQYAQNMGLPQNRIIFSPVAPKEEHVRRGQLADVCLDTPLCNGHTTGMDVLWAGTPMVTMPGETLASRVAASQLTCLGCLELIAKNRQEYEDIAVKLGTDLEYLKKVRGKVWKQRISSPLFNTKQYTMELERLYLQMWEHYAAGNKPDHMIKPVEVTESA
In words: Glycosylation of CK2-derived polypeptide substrates by OGT, quantified by LC/MS. It counts as biochemical. Particulars: for Relative rate of glycosylation: OGT, LC/MS peak integration at 445 nm, relative to wt polypeptide 4.1. The procedure: To address the first requirement, a panel of polypeptides was synthesized based on a truncated version of the CKII polypeptide [CKII peptide PGGSTPVSSNAMM (SEQ ID NO:20)]. The polypeptide was modified from the native sequence in several ways. First, a fluorescein was installed on the N-terminus during synthesis. Second, a lysine was added to the C-terminus so that a second dye or quencher could be installed by reaction with the appropriate N-hydroxysuccinimidyl ester. These modifications allowed two different FRET approaches. The first approach required the installation of a coumarin derivative on the polypeptide. The second required installation of a quencher molecule, which measured total fluorescence intensity. (See Examples 2 and 3). Finally, the residues on either side of the glycosylated serine of the truncated CK2 polypeptide were changed to phenylalanine, leucine or arginine to introduce proteolytic cleavage sites for common proteases (such as trypsin, chymotrypsin and thermolysin) that were not present in the native sequence. It was reasoned that cleavage adjacent to the glycosylation site would yield the largest difference in the rate of proteolysis between glycosylated and native polypeptides. This series of polypeptides was synthesized and screened for OGT activity using by LC/MS. Peak integration (measured at 445 nm) was used to quantitative products and reactants and mass spectrometry was used to confirm peak identity. The results are presented in Table 2 and some of the peptides (peptide 4.1, 4.4, and 4.5 top to bottom) are illustrated in FIG. 2.
All polypeptides were purchased from Tufts University core facility (Boston, Mass.). The mass of crude product was verified and the polypeptides were labeled under the following conditions: Polypeptide was dissolved in 250 mM NaHCO3 buffer, pH 8.2 at a 5 mM concentration and the appropriate NHS-Ester (0.5 eq) was dissolved in DMSO (a volume of 1/10 of the aqueous buffer was used). The DMSO solution was quickly added to the peptide and the reaction proceeded at room temperature for 30 minutes. This was repeated 2 more times (four more times for polypeptide 4.10). The reaction was monitored by LC/MS. LCMS conditions for polypeptides 4.1-4.8—Agilent Eclipse 5 μm XD8-C8 column, 0→100% CH3CN+0.1% formic acid over 20 minutes. LCMS conditions for polypeptides 4.9-4.10—Agilent Eclipse 5 μm XD8-C8 column, 0→100% CH3CN+0.1% NH4OH over 20 minutes. Each polypeptide was purified by preparative HPLC. Conditions for polypeptides 4.1-4.8 were: —Phenomonex Luna C18 5 μm column, 0→100% CH3CN+0.1% TFA over 40 minutes. Conditions for polypeptides 4.9-4.10 were: —Phenomonex Luna C18 5 μm column, 0→100% CH3CN+0.1% NH4OH over 40 minutes. Products were confirmed by LC/MS. Preparative Glycosylation of Labeled Polypeptides: Purified FRET labeled polypeptides were added (20-50 μM final concentration) to assay buffer (50 mM Tris, 20 mM CaCl2, 0.05% Tween-20, 0.05% NP-40, pH=7.8), 200 μM UDP-GlcNAc, 0.05 units of alkaline phosphatase, and 5 μM OGT. Reactions were monitored using LCMS: conditions for polypeptides 4.1-4.8—Agilent Eclipse 5 μm XD8-C8 column, 10→60% CH3CN+0.1% formic acid over 20 minutes. LCMS conditions for polypeptides 4.9-4.10—Agilent Eclipse 5 μm XD8-C8 column, 10→60% CH3CN+0.1% NH4OH over 20 minutes, and when complete were purified using the same column and conditions. Polypeptides 4.1-4.8 were quantitated by absorption at 492 nm using an extinction coefficient of 86,000 cm^−1M^−1; polypeptide 4.9 was quantitated by absorption at 530 nm using an extinction coefficient of 26,000 cm^−1M^−1; polypeptide 4.10 was quantitated by absorption at 530 nm using an extinction coefficient of 52,000 cm^−1M^−1. Fluorescence Resonance Energy Transfer (FRET)-Peptide Approach #1

In the case of `O=C(/C=C/c1cccs1)Nc1scc(-c2ccccc2)c1C(=O)O` [Compound 2], the “hit in the high throughput screen” value on sOGT is “singleton hits”.
On the same count and under the same terms, with `CSC(SC)=C(C#N)S(=O)(=O)c1ccc(Cl)cc1` [Compound 3] the entry was “hits”; with `N#CSc1cc(SC#N)c(N)nc1N` [Compound 4], “hits”.
On the same count and under the same terms, the value for `COc1cccc(/N=C\c2c[nH]c3ccccc23)c1` [Compound 5] was “hits”; that for `Cc1cc(C)c2c(C(=O)O)cc(O)nc2c1` [Compound 6] was “singleton hits”; that for `Cl.Cl.N=C(N)c1cccc(NC(=O)Nc2cccc(C(=N)N)c2)c1` [Compound 10] was “singleton hits”.
On the same count and under the same terms, the value for `Clc1cccc(C(c2nnc(-c3ccccc3)o2)N2CCN(c3ccccc3)CC2)c1` (stereo not shown) [Compound 15] was “singleton hits”; that for `O=C1OCc2ccccc21` [Compound 16] was “singleton hits”.
In the case of `O=C(O)[C@H](Cc1ccccc1)N1Cc2ccccc2C1=O` [Compound 17], the “hit in the high throughput screen” value on sOGT is reported as “singleton hits”.
Still for that read-out and setting: with `CCn1cc(C(=O)N2CCOCC2)c(=O)c2cc(S(=O)(=O)N(C)C)ccc21` [Compound 18] the entry was “singleton hits”; with `Fc1ccc(NC2=NCCN2)cc1` [Compound 21], “singleton hits”.
Regarding “FITC(Aha)STPFSSANMK ({FITC}-[Aha′]STPFSSANMK; reading uncertain; also: printed as FITC(Aha)STPFSSANMK) [Polypeptide 4.2]”, the “Relative rate of glycosylation” value in assay [1] is on record as 0.15.
As to “FITC(Aha)STPRSSANMK ({FITC}-[Aha′]STPRSSANMK; reading uncertain; also: printed as FITC(Aha)STPRSSANMK) [Polypeptide 4.3]”, the “Relative rate of glycosylation” value in assay [1] is listed as 0.
Same read-out and setting: the value for “FITC(Aha)STPVSFANMK ({FITC}-[Aha′]STPVSFANMK; reading uncertain; also: printed as FITC(Aha)STPVSFANMK) [Polypeptide 4.4]” was 0.4; that for “FITC(Aha)STPVSRANMK ({FITC}-[Aha′]STPVSRANMK; reading uncertain; also: printed as FITC(Aha)STPVSRANMK) [Polypeptide 4.5]” was 0.7.
As for “FITC(Aha)STPVSRANMK(QXL ™ 520)R K(QXL ™ 520) ({FITC}-[Aha′]STPVSRANMK(QXL 520)RK(QXL 520); reading uncertain; also: printed as FITC(Aha)STPVSRANMK(QXL ™ 520)R K(QXL ™ 520)) [Polypeptide 4.10]”, the “increase of glycosylation rate” value in assay [1] (more soluble variant vs earlier polypeptides) is reported as 2-3 fold.
